Reference: patent US10799605B2 (3B PHARMACEUTICALS GMBH, priority 2014, dated 2020)
Read-outs that look alike come from different tables or passages of the source.

Experiments:
[1] = biological target: AT1 (h) (Homo sapiens (Human), UniProt P30556); test: ExpresSProfile: angiotensin receptor 1, antagonist radioligand; format: binding; conditions: Test Concentration 1.0E−05 M
[2] = biological target: kappa (KOP) (Rattus norvegicus, UniProt P34975); test: ExpresSProfile: kappa opioid receptor, agonist radioligand; format: binding; conditions: Test Concentration 1.0E−05 M
[3] = biological target: 5-HT1A (h) (Homo sapiens (Human), UniProt P08908); test: ExpresSProfile: 5-hydroxytryptamine receptor 1A, agonist radioligand; format: binding; conditions: Test Concentration 1.0E−05 M
Sequence of 5-HT1A (h) (P08908 whole entry): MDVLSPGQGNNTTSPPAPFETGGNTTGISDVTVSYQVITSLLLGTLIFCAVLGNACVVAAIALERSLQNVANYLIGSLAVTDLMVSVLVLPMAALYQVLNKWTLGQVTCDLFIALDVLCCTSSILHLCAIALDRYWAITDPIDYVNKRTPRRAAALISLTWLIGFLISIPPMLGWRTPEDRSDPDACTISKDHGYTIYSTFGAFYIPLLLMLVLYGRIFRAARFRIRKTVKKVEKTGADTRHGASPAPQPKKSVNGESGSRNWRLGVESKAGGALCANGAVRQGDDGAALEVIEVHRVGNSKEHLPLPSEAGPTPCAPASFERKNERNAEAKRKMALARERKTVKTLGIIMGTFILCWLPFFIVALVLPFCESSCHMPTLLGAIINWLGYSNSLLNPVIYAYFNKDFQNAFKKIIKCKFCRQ

[4] = biological target: CB1 (h) (Homo sapiens (Human), UniProt P21554); test: ExpresSProfile: cannabinoid receptor 1, agonist radioligand; format: binding; conditions: Test Concentration 1.0E−05 M
Sequence of CB1 (h) (P21554 whole entry): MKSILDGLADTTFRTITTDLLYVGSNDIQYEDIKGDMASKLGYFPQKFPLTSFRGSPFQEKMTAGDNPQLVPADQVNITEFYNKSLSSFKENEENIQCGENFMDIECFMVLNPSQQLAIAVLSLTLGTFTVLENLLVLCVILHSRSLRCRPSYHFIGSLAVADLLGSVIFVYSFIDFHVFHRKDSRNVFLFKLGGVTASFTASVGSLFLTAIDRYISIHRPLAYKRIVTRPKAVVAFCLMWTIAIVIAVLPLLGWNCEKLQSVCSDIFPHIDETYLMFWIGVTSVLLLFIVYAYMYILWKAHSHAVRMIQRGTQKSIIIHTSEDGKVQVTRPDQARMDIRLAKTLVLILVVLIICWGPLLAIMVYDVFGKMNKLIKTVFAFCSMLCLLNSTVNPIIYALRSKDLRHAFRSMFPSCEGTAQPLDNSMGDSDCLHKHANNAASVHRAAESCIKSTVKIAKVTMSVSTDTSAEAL

[5] = biological target: M1 (h) (Homo sapiens (Human), UniProt P11229); test: ExpresSProfile: muscarinic receptor 1, antagonist radioligand; format: binding; conditions: Test Concentration 1.0E−05 M
Sequence of M1 (h) (P11229 whole entry): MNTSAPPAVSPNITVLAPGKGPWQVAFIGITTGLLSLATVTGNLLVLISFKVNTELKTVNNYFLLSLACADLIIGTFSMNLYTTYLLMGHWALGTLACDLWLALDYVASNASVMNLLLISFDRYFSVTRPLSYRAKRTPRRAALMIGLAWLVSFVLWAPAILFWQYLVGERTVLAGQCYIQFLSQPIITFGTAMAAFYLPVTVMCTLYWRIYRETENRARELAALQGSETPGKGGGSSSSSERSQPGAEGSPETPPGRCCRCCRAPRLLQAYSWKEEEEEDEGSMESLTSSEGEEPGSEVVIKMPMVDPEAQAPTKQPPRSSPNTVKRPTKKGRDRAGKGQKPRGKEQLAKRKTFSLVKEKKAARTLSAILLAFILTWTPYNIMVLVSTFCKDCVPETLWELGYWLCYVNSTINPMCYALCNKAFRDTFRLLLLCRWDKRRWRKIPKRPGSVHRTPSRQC

[6] = biological target: 5-HT5a (h) (Homo sapiens (Human), UniProt P47898); test: ExpresSProfile: 5-hydroxytryptamine receptor 5a, agonist radioligand; format: binding; conditions: Test Concentration 1.0E−05 M
Sequence of 5-HT5a (h) (P47898 whole entry): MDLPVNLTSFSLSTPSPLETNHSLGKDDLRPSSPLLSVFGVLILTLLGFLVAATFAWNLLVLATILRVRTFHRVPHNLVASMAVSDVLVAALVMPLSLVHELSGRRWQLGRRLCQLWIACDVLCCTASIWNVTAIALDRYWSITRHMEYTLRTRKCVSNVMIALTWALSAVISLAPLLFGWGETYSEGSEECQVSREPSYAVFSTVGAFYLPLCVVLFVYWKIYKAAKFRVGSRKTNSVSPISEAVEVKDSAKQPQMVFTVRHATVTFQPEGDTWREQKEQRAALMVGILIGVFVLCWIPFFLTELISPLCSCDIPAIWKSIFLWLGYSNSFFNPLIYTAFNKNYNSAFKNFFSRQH

[7] = Plasma protein binding assay, human; format: in vitro ADME; conditions: plasma proteins, 4 h at 37° C., equilibrium dialysis, read-out: % bound [human]
From the text: A drug's efficiency may be affected by the degree to which it binds to the proteins within blood plasma. A drug in blood exists in two forms: bound and unbound. Depending on a specific drug's affinity for plasma protein, a proportion of the drug may become bound to plasma proteins, with the remainder being unbound. […] It is also the fraction that may be metabolized and/or excreted. Protein binding can influence the drug's biological half-life in the body. The bound portion may act as a reservoir or depot from which the drug is slowly released as the unbound form. In order to determine the binding characteristics of the compounds of the present invention as listed in the following Table to human or mouse plasma protein, respectively, a plasma protein binding assay was carried out. All compounds have a plasma protein binding that is appropriate for diagnostic, therapeutic and theranostic use of these compounds according to the present invention.
The binding of test substances to human and murine plasma proteins was tested by Cerep (Celle l'Evescault, France; Catalog reference 2194 [human] and 2223 [mouse]) according to Banker et al., J. Pharm. Sci., 2003, 92, 967-974. Test compounds were incubated with human or murine plasma proteins for 4 h at 37° C. Subsequently, the fraction of compound bound to plasma proteins was determined by equilibrium dialysis and HPLC-MS/MS detection. […]

[8] = biological target: Y1 (h) (Homo sapiens (Human), UniProt P25929); test: ExpresSProfile: neuropeptide Y receptor 1, agonist radioligand; format: binding; conditions: Test Concentration 1.0E−05 M
Sequence of Y1 (h) (P25929 whole entry): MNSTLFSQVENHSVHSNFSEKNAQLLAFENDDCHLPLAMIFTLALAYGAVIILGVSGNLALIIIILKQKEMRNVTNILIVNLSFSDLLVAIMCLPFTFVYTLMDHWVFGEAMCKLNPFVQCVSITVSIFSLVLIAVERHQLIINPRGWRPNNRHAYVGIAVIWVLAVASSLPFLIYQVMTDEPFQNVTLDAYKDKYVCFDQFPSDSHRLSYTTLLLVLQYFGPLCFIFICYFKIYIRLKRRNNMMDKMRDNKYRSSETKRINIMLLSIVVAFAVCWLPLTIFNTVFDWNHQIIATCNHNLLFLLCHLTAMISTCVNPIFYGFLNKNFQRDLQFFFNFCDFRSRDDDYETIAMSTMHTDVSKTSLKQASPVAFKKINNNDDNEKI

[9] = biological target: D1 (h) (Homo sapiens (Human), UniProt P21728); test: ExpresSProfile: dopamine receptor 1, antagonist radioligand; format: binding; conditions: Test Concentration 1.0E−05 M
Sequence of D1 (h) (P21728 whole entry): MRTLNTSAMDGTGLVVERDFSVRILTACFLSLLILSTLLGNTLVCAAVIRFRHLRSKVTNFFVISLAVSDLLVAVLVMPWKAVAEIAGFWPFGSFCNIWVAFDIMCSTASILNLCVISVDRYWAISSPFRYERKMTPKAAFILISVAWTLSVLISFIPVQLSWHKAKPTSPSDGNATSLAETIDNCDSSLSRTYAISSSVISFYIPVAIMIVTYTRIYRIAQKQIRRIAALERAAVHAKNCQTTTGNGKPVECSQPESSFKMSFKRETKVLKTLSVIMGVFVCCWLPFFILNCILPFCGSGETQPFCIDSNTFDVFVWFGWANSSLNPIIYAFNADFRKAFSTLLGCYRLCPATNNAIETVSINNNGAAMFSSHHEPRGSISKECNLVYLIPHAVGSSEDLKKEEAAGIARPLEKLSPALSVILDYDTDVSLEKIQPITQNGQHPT

[10] = biological target: NTR1 (Homo sapiens (Human), UniProt P30989); test: Functional Ca2+ mobilisation assay (example part II); format: cell-based; conditions: antagonist assay
Sequence of NTR1 (P30989 whole entry): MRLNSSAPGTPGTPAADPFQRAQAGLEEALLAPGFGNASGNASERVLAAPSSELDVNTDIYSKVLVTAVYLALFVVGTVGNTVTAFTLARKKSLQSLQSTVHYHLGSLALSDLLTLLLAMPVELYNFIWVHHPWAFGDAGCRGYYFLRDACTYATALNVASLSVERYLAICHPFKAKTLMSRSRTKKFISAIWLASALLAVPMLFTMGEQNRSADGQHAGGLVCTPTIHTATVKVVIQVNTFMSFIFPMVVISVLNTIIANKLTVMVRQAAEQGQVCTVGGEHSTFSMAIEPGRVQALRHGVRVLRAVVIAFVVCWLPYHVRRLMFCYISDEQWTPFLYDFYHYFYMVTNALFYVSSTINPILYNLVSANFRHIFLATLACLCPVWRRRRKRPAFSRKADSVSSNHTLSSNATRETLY
How it was run: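 HT29 or NTR1-expressing HEK293 cells loaded with Ca5 dye for 1 h at 37 °C in buffer at pH 7.4, and fluorescence recorded for about 90 s after addition. EC50 derived from agonist serial dilutions; IC50 from antagonists pre-incubated 30 min before an EC80 agonist challenge.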

[11] = test system: BZD (central); test: ExpresSProfile: benzodiazepine, agonist radioligand; format: binding; conditions: Test Concentration 1.0E−05 M
[12] = biological target: CCK1 (CCKA) (h) (Homo sapiens (Human), UniProt P32238); test: ExpresSProfile: cholecystokinin receptor 1, agonist radioligand; format: binding; conditions: Test Concentration 1.0E−05 M
Sequence of CCK1 (CCKA) (h) (P32238 whole entry): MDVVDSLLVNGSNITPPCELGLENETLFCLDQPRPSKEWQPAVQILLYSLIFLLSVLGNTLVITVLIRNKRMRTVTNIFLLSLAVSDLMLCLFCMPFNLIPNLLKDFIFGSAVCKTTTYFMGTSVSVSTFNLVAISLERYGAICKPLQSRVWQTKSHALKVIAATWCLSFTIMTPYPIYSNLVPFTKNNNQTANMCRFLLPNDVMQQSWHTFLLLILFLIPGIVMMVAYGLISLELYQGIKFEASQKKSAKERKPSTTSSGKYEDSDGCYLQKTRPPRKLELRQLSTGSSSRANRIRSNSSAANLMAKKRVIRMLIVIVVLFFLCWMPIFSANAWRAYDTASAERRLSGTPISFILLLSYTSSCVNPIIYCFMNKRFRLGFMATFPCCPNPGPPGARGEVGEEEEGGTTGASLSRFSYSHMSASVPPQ

[13] = test system: GPCRs, ion channels, and transporter proteins; test: Specificity screening (ExpresSProfile), whole panel; format: binding; conditions: 10^−5 M
Experimental: The specificity screening was carried out in order to test for unspecific binding of compounds of the present invention. The specificity for NTR1 was tested using a standard battery of assays (“ExpresSProfile”) comprising 55 assays on GPCRs, ion channels, and transporter proteins. This assay was performed by Cerep (Celle l'Evescault, France; Catalog reference P1).
Unspecific binding according to this specificity screening is observed if Inhibition of Control Specific Binding is above 50%.

[14] = biological target: 5-HT7 (h) (Homo sapiens (Human), UniProt P34969); test: ExpresSProfile: 5-hydroxytryptamine receptor 7, agonist radioligand; format: binding; conditions: Test Concentration 1.0E−05 M
Sequence of 5-HT7 (h) (P34969 whole entry): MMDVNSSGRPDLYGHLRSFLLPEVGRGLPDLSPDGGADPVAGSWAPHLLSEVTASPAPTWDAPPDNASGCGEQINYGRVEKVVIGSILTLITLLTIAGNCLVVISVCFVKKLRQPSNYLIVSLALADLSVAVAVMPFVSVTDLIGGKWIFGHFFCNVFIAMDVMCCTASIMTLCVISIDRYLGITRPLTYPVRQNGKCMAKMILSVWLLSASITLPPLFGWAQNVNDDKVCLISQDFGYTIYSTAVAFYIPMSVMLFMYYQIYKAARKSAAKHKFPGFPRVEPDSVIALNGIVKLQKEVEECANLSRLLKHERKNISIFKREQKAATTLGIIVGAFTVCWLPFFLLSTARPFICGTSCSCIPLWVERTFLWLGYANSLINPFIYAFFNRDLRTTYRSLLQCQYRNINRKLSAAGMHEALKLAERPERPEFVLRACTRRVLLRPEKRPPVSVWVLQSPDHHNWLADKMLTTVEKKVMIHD

[15] = biological target: A2A (h) (Homo sapiens (Human), UniProt P29274); test: ExpresSProfile: adenosine receptor 2A, agonist radioligand; format: binding; conditions: Test Concentration 1.0E−05 M
Sequence of A2A (h) (P29274 whole entry): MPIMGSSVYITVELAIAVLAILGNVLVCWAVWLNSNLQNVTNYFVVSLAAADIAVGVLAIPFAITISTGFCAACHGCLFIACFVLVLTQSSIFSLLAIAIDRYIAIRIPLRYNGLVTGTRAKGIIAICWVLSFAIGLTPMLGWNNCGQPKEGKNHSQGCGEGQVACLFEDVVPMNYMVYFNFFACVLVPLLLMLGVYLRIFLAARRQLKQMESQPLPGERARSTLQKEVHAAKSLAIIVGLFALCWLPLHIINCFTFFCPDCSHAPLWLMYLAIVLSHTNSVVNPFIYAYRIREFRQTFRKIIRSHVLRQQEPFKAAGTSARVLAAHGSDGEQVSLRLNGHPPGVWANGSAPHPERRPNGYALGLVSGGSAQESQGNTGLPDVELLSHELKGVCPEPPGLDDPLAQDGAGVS

[16] = read-out: % Inhibition of Control Specific Binding
[17] = read-out: % of Control Specific Binding 1st
[18] = read-out: % of Control Specific Binding 2nd
[19] = read-out: % of Control Specific Binding Mean

Sequence of AT1 (h) (P30556 whole entry): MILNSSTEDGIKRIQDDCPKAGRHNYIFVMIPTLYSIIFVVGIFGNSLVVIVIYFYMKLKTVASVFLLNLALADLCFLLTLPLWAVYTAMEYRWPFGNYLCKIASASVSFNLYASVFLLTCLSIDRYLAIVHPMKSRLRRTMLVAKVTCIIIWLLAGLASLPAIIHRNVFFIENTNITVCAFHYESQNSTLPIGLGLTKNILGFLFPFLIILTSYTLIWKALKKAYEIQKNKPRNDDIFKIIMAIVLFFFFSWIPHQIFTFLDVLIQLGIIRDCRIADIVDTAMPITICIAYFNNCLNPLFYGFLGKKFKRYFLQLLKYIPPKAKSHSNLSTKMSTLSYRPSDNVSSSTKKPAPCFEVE

COc1cccc(OC)c1-c1cc(C(=O)NC2(C(=O)O)C3CC4CC(C3)CC2C4)nn1-c1ccc(C(=O)N(C)CCCN(C)CCCN(C)C(=O)CN2CCN(CC(=O)O)CCN(CC(=O)O)CCN(CC(=O)O)CC2)cc1C(C)C (stereo not drawn) [(IIIa), 2-{[1-{4-[(3-{[3-(DOTA-methyl-amino)-propyl]-methyl-amino}-propyl)-methyl-carbamoyl]-2-isopropyl-phenyl}-5-(2,6-dimethoxy-phenyl)-1H-pyrazole-3-carbonyl]-amino}-adamantane-2-carboxylic acid]
inhibition at 10 µM [1, 16]: -18%
remaining activity at 10 µM [1, 17]: 119%
remaining activity at 10 µM [1, 18]: 117%
remaining activity at 10 µM [1, 19]: 118%
inhibition at 10 µM [2, 16]: -2%
remaining activity at 10 µM [2, 17]: 111%
remaining activity at 10 µM [2, 18]: 92.3%
remaining activity at 10 µM [2, 19]: 102%
inhibition at 10 µM [3, 16]: -29%
remaining activity at 10 µM [3, 17]: 130%
remaining activity at 10 µM [3, 18]: 129%
remaining activity at 10 µM [3, 19]: 129%
inhibition at 10 µM [4, 16]: 11%
remaining activity at 10 µM [4, 17]: 96%
remaining activity at 10 µM [4, 18]: 82.5%
remaining activity at 10 µM [4, 19]: 89.3%
inhibition at 10 µM [5, 16]: -25%
remaining activity at 10 µM [5, 17]: 111%
remaining activity at 10 µM [5, 18]: 138%
remaining activity at 10 µM [5, 19]: 125%
inhibition at 10 µM [6, 16]: -2%
remaining activity at 10 µM [6, 17]: 109%
remaining activity at 10 µM [6, 18]: 95.2%
remaining activity at 10 µM [6, 19]: 102%
fraction unbound at 4 h [7]: 0.01
inhibition at 10 µM [8, 16]: -34%
remaining activity at 10 µM [8, 17]: 128%
remaining activity at 10 µM [8, 18]: 141%
remaining activity at 10 µM [8, 19]: 134%
inhibition at 10 µM [9, 16]: -5%
remaining activity at 10 µM [9, 17]: 114%
remaining activity at 10 µM [9, 18]: 96.3%
remaining activity at 10 µM [9, 19]: 105%
IC50 [10]: 20 nM
% Inhibition of Control Specific Binding [11]: −16%
% of Control Specific Binding 1st [11]: 109.4%
% of Control Specific Binding 2nd [11]: 122.6%
% of Control Specific Binding Mean [11]: 116.0%
inhibition at 10 µM [12, 16]: -18%
remaining activity at 10 µM [12, 17]: 102%
remaining activity at 10 µM [12, 18]: 135%
remaining activity at 10 µM [12, 19]: 118%
specificity [13]: highly specific
inhibition at 10 µM [14, 16]: 2%
remaining activity at 10 µM [14, 17]: 96.6%
remaining activity at 10 µM [14, 18]: 99.7%
remaining activity at 10 µM [14, 19]: 98.2%
% Inhibition of Control Specific Binding [15]: 5%
% of Control Specific Binding 1st [15]: 104.2%
% of Control Specific Binding 2nd [15]: 85.6%
% of Control Specific Binding Mean [15]: 94.9%
